# From PubChem BioAssay AID328 (DTP/NCI, 2004)
# Values joined by “and” are separate entries in the source; they are usually repeats but may differ in a detail not shown here. Equal entries are not always repeated. Toxic doses and inconclusive results are not listed.
# System: BDF1 mice, P388 leukemia ip, median survival T/C
# Assay: NCI In Vivo Anticancer Drug Screen. Data for tumor model P388 Leukemia (intraperitoneal) in B6D2F1 (BDF1) mice
# Conditions: endpoint: median survival time, higher = longer survival
# Summary of the method: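 In tumour-bearing mice, survival after compound treatment is set against the vehicle group and given as a quotient.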
# [1] = dose: 6.0 mg/kg/injection, schedule: Q01DX009 (ip), vehicle: saline with Tween-80
# [2] = dose: 50.0 mg/kg/injection, schedule: Q01DX009 (ip), vehicle: saline with Tween-80
# [3] = dose: 100.0 mg/kg/injection, schedule: Q01DX009 (ip), vehicle: saline with Tween-80
# [4] = dose: 100.0 mg/kg/injection, schedule: Q04DX003 (ip), vehicle: Klucel (hydroxypropylcellulose) (HPC)
# [5] = dose: 200.0 mg/kg/injection, schedule: Q04DX003 (ip), vehicle: Klucel (hydroxypropylcellulose) (HPC)
# [6] = dose: 400.0 mg/kg/injection, schedule: Q04DX003 (ip), vehicle: Klucel (hydroxypropylcellulose) (HPC)
# [7] = dose: 100.0 mg/kg/injection, schedule: Q04DX003 (ip), vehicle: saline
# [8] = dose: 100.0 mg/kg/injection, schedule: Q01DX001 (ip), vehicle: saline with Tween-80
# [9] = dose: 50.0 mg/kg/injection, schedule: Q04DX003 (ip), vehicle: saline with Tween-80
# [10] = dose: 100.0 mg/kg/injection, schedule: Q04DX003 (ip), vehicle: saline with Tween-80
# [11] = dose: 200.0 mg/kg/injection, schedule: Q04DX003 (ip), vehicle: saline with Tween-80
# [12] = dose: 400.0 mg/kg/injection, schedule: Q04DX003 (ip), vehicle: saline with Tween-80
smiles,measurement,setting,value
COc1ccc(NC(=O)N(CCCl)N=O)cc1OC,T/C,"dose: 0.29 mg/kg/injection, schedule: Q04DX003 (ip), vehicle: saline with Tween-80",107 % of control
same,T/C,"dose: 0.44 mg/kg/injection, schedule: Q04DX003 (ip), vehicle: saline with Tween-80",110 % of control
same,T/C,"dose: 0.66 mg/kg/injection, schedule: Q04DX003 (ip), vehicle: saline with Tween-80",122 % of control
same,T/C,"dose: 0.79 mg/kg/injection, schedule: Q01DX009 (ip), vehicle: saline with Tween-80",174 % of control
same,T/C,"dose: 1.19 mg/kg/injection, schedule: Q01DX009 (ip), vehicle: saline with Tween-80",185 % of control
same,T/C,"dose: 1.78 mg/kg/injection, schedule: Q01DX009 (ip), vehicle: saline with Tween-80",186 % of control
same,T/C,"dose: 2.2 mg/kg/injection, schedule: Q04DX003 (ip), vehicle: saline with Tween-80",172 % of control
same,T/C,"dose: 2.66 mg/kg/injection, schedule: Q01DX009 (ip), vehicle: saline with Tween-80",161 % of control and 194 % of control
same,T/C,"dose: 3.3 mg/kg/injection, schedule: Q04DX003 (ip), vehicle: saline with Tween-80",190 % of control
same,T/C,"dose: 4.0 mg/kg/injection, schedule: Q01DX009 (ip), vehicle: saline with Tween-80",169 % of control
same,T/C,"dose: 5.0 mg/kg/injection, schedule: Q04DX003 (ip), vehicle: saline with Tween-80",186 % of control
same,T/C,"dose: 5.5 mg/kg/injection, schedule: Q04DX003 (ip), vehicle: saline with Tween-80",218 % of control
same,T/C,[1],169 % of control
same,T/C,"dose: 7.5 mg/kg/injection, schedule: Q04DX003 (ip), vehicle: saline with Tween-80",209 % of control
same,T/C,"dose: 8.3 mg/kg/injection, schedule: Q04DX003 (ip), vehicle: saline with Tween-80",209 % of control
same,T/C,"dose: 9.0 mg/kg/injection, schedule: Q01DX009 (ip), vehicle: saline with Tween-80",260 % of control
same,T/C,"dose: 12.5 mg/kg/injection, schedule: Q04DX003 (ip), vehicle: saline with Tween-80",236 % of control
same,T/C,"dose: 18.7 mg/kg/injection, schedule: Q04DX003 (ip), vehicle: saline with Tween-80",281 % of control
CCOP(=O)(O)OCC.[Al],T/C,[2],100 % of control
same,T/C,[3],103 % of control
same,T/C,"dose: 200.0 mg/kg/injection, schedule: Q01DX009 (ip), vehicle: saline with Tween-80",103 % of control
O=C(c1ccccc1)C1C(c2ccccc2)N1CCl (stereo not given),T/C,[4],113 % of control
same,T/C,[5],100 % of control
same,T/C,[6],100 % of control
[I][Hg][CH2]C1COC([CH2][Hg][I])CO1 (stereo not given),T/C,"dose: 0.78 mg/kg/injection, schedule: Q01DX010 (ip), vehicle: saline",95 % of control
same,T/C,"dose: 1.56 mg/kg/injection, schedule: Q01DX010 (ip), vehicle: saline",95 % of control and 118 % of control
same,T/C,"dose: 3.13 mg/kg/injection, schedule: Q01DX010 (ip), vehicle: saline",100 % of control and 122 % of control
same,T/C,"dose: 6.25 mg/kg/injection, schedule: Q01DX010 (ip), vehicle: saline",122 % of control
same,T/C,"dose: 12.5 mg/kg/injection, schedule: Q01DX010 (ip), vehicle: saline",118 % of control
COc1cc2c(cc1NC(=O)N(CCCl)N=O)-c1ccccc1C2,T/C,"dose: 8.3 mg/kg/injection, schedule: Q04DX003 (ip), vehicle: Klucel (hydroxypropylcellulose) (HPC)",108 % of control
same,T/C,"dose: 12.0 mg/kg/injection, schedule: Q04DX003 (ip), vehicle: Klucel (hydroxypropylcellulose) (HPC)",113 % of control
same,T/C,"dose: 19.0 mg/kg/injection, schedule: Q04DX003 (ip), vehicle: Klucel (hydroxypropylcellulose) (HPC)",154 % of control
same,T/C,"dose: 29.0 mg/kg/injection, schedule: Q04DX003 (ip), vehicle: Klucel (hydroxypropylcellulose) (HPC)",154 % of control
same,T/C,"dose: 45.0 mg/kg/injection, schedule: Q04DX003 (ip), vehicle: Klucel (hydroxypropylcellulose) (HPC)",172 % of control
same,T/C,"dose: 65.0 mg/kg/injection, schedule: Q04DX003 (ip), vehicle: Klucel (hydroxypropylcellulose) (HPC)",190 % of control
same,T/C,[4],168 % of control
same,T/C,[5],172 % of control
same,T/C,[6],209 % of control
O=C(Oc1ccc([N+](=O)[O-])cc1)c1ccc(C[P+](c2ccccc2)(c2ccccc2)c2ccccc2)cc1,T/C,"dose: 100.0 mg/kg/injection, schedule: Q01DX009 (ip), vehicle: saline",109 % of control
same,T/C,[7],104 % of control
same,T/C,"dose: 200.0 mg/kg/injection, schedule: Q01DX009 (ip), vehicle: saline",100 % of control
same,T/C,"dose: 200.0 mg/kg/injection, schedule: Q04DX003 (ip), vehicle: saline",100 % of control
same,T/C,"dose: 400.0 mg/kg/injection, schedule: Q01DX009 (ip), vehicle: saline",100 % of control
same,T/C,"dose: 400.0 mg/kg/injection, schedule: Q04DX003 (ip), vehicle: saline",95 % of control
CC(C)(C1=CC=CS1(=O)=O)C1=CC=C(C(C)(C)C2=CC=CS2(=O)=O)S1(=O)=O,T/C,[8],102 % of control
same,T/C,"dose: 200.0 mg/kg/injection, schedule: Q01DX001 (ip), vehicle: saline with Tween-80",94 % of control
same,T/C,"dose: 400.0 mg/kg/injection, schedule: Q01DX001 (ip), vehicle: saline with Tween-80",106 % of control
Nc1ccc(NS(=O)(=O)Cc2ccccc2)cc1,T/C,"dose: 25.0 mg/kg/injection, schedule: Q01DX001 (ip), vehicle: saline with Tween-80",100 % of control
same,T/C,"dose: 50.0 mg/kg/injection, schedule: Q01DX001 (ip), vehicle: saline with Tween-80",100 % of control
same,T/C,[8],100 % of control
Cc1ccc(C(=O)N/N=C/C(=O)O)cc1,T/C,"dose: 12.5 mg/kg/injection, schedule: Q04DX003 (ip), vehicle: Klucel (hydroxypropylcellulose) (HPC)",113 % of control
same,T/C,"dose: 25.0 mg/kg/injection, schedule: Q04DX003 (ip), vehicle: Klucel (hydroxypropylcellulose) (HPC)",106 % of control
same,T/C,"dose: 50.0 mg/kg/injection, schedule: Q04DX003 (ip), vehicle: Klucel (hydroxypropylcellulose) (HPC)",116 % of control
same,T/C,[4],106 % of control
same,T/C,[5],122 % of control
O=C(CS)OCCOC(=O)CS,T/C,"dose: 25.0 mg/kg/injection, schedule: Q01DX009 (ip), vehicle: Klucel (hydroxypropylcellulose) (HPC)",104 % of control
same,T/C,"dose: 25.0 mg/kg/injection, schedule: Q04DX003 (ip), vehicle: saline",109 % of control
same,T/C,"dose: 50.0 mg/kg/injection, schedule: Q01DX009 (ip), vehicle: Klucel (hydroxypropylcellulose) (HPC)",100 % of control
same,T/C,"dose: 50.0 mg/kg/injection, schedule: Q04DX003 (ip), vehicle: saline",104 % of control
same,T/C,"dose: 100.0 mg/kg/injection, schedule: Q01DX009 (ip), vehicle: Klucel (hydroxypropylcellulose) (HPC)",95 % of control
same,T/C,[7],95 % of control
Cc1cc2c(cc1C)C(=O)C(N1CCN(C)CC1)CCC2 (stereo not given),T/C,"dose: 25.0 mg/kg/injection, schedule: Q04DX003 (ip), vehicle: saline with Tween-80",100 % of control
same,T/C,[9],104 % of control
same,T/C,[10],86 % of control
COc1cccc(/C=N/NC(=O)C[n+]2ccccc2)c1OC,T/C,"dose: 12.5 mg/kg/injection, schedule: Q01DX009 (ip), vehicle: saline with Tween-80",104 % of control
same,T/C,"dose: 25.0 mg/kg/injection, schedule: Q01DX009 (ip), vehicle: saline with Tween-80",100 % of control
same,T/C,[2],104 % of control
same,T/C,[9],100 % of control
CCCNC(=O)Nc1cccc(C(F)(F)F)c1,T/C,[10],104 % of control
same,T/C,[11],109 % of control
same,T/C,[12],100 % of control
CC(=O)[O][Hg][c]1cc(-c2ccc(N=Nc3c(S(=O)(=O)O)cc4cccc(N)c4c3O)cc2)ccc1N=Nc1c(S(=O)(=O)O)cc2cccc(N)c2c1O,T/C,"dose: 1.5 mg/kg/injection, schedule: Q01DX009 (ip), vehicle: saline with Tween-80",100 % of control
same,T/C,"dose: 3.0 mg/kg/injection, schedule: Q01DX009 (ip), vehicle: saline with Tween-80",100 % of control
same,T/C,[1],95 % of control
CCOC(CNC(=O)NC1CCCCC1)OCC,T/C,[10],90 % of control
same,T/C,[11],90 % of control
same,T/C,[12],90 % of control
CCCSC(CC=O)CCC (stereo not given),T/C,"dose: 100.0 mg/kg/injection, schedule: Q01DX001 (ip), vehicle: suspension in saline",106 % of control
same,T/C,"dose: 200.0 mg/kg/injection, schedule: Q01DX001 (ip), vehicle: suspension in saline",92 % of control
same,T/C,"dose: 400.0 mg/kg/injection, schedule: Q01DX001 (ip), vehicle: suspension in saline",88 % of control
CC1(C)C2CCC1(C)C(Cl)C2 (stereo not given),T/C,"dose: 100.0 mg/kg/injection, schedule: Q04DX002 (ip), vehicle: saline with Tween-80",100 % of control
same,T/C,"dose: 200.0 mg/kg/injection, schedule: Q04DX002 (ip), vehicle: saline with Tween-80",103 % of control
same,T/C,"dose: 400.0 mg/kg/injection, schedule: Q04DX002 (ip), vehicle: saline with Tween-80",107 % of control
CCOC(=O)N1CCN(CCCCCOc2ccc(CC(C)(C)C)cc2Cl)CC1,T/C,[2],121 % of control
same,T/C,[3],118 % of control
